From patent US20230118682A1, “MODIFIED J-AGGREGATES AND CONJUGATES THEREOF” (GEORGE MASON UNIVERSITY, priority 2021, published 2023)
Several values for one entry are separate records, joined by “and”; a condition that tells them apart may be missing. Identical values can stand only once.

Legend:
[1] = Fluorescence measurements; type: physicochemical; conditions: excitation 720 nm, emission 770-850 nm
Description: Fluorescence measurements: Fluorescence intensity of different concentrations of free ICG dye and J-aggregates was recorded using a Tecan Safire^2™ (Mannendorf, Switzerland) fluorescence microplate reader. Both free ICG dye and J-aggregate particles were excited at 720 nm with an emission at 770 nm. The fluorescence emission spectrum was recorded from 770 to 850 nm with a step size of 2 nm.

in vivo = experiment: in vivo
Description: (§1) We first acquired multiwavelength images of microcuvette tubes containing 0.4 mM of ICG dye or RGD-JAAZ particles to evaluate the PA spectra of both contrast agents. […] For in vivo imaging experiments, multispectral PAI were acquired in two female nu/nu nude mice at various timepoints (0, 10, 90 min) following tail-vein administration of ICG dye and RGD-JAAZ particles (FIGS. 39A-39D). A pre-injection baseline PA signal at 895 nm was also acquired for reference (FIG. 39B). […] Molecular maps were generated from a linear spectral unmixing of the multiwavelength PA images using previously reported spectra for hemoglobin and the measured spectra of the RGD-JAAZ particles at their injection concentration.

[2] = Photoacoustic signal relative to whole blood; set-up: species or system sheep; conditions: 20 μM, excited at 895 nm, PTFE tubing
Description: Photoacoustic Measurement: The 96-well plate was secured to the bottom of a plastic water reservoir. The reservoir was filled with deionized water, completely submerging the sample. For comparison of smaller volumes, 2-inch segments of 24-gauge PTFE tubing ([…]) was filled with various samples. The tubes were placed in a clear acrylic chamber submerging the samples in deionized water. A single element piezoelectric 35 MHz or 5 MHz focused transducer (V326, Olympus, Mass., USA) was fixed at 12 mm or 45 mm above each sample with their functional element submerged in deionized water. […] The photoacoustic signal recorded from the transducer is sent to a 20/40db amplifier (HVA-200M, Femto) from there the signal is recorded through a lock-in amplifier (Zurich Instruments, Zurich, Switzerland) triggered on each laser pulse using a photodiode placed near the laser source. […] The absolute amplitude of each waveform was calculated, averaged, and normalized to the signal recorded from India ink or whole sheep's blood containing anticoagulant.
To explore the possibility of using JAAZ in vivo, the photoacoustic signal was compared to whole blood. […] PA signals were recorded from each sample and the signal amplitude was normalized to the whole-blood PA-signal amplitude (FIG. 5D). […]
The in-vitro photoacoustic (PA) properties of the N-JAAZ particles were further evaluated. […]

[3] = Phantom PA spectra on TriTom imaging system; conditions: 0.4 mM in microcuvette tubes
Description: as §1

- fluorescence emission [1]: recordable fluorescence intensity
- half-life (in vivo; female, nu/nu nude, mouse, in vivo): 1.19 ± 0.45 min
SMILES: CC1(C)C(/C=C/C=C/C=C/C=C2\N(CCCCS(=O)(=O)O)c3ccc4ccccc4c3C2(C)C)=[N+](CCCCS(=O)(=O)[O-])c2ccc3ccccc3c21 [ICG, Indocyanine Green]
- Contrast-to-noise ratio (in vivo; blood vessels, 90-minutes post-injection, n=2): 1.59
- PA signal relative to whole blood [2]: ~0.03 x
- peak PA signal wavelength (phantom) [3]: 740 nm and 780 nm
